Experimental data reported in article PMC11456799 (Molecular Therapy. Nucleic Acids, 2024).

Assays:
WA-1/2020 SARS-CoV-2 = system: WA-1/2020 SARS-CoV-2; design: species or system K18-hACE2 mice; conditions: mouse, in vivo, po, 150 mg/kg
SARS-CoV-2 WA-1/2020 = assay: In vitro antiviral assay in HeLa-ACE2 cells; format: cell-based; conditions: Severe acute respiratory syndrome coronavirus 2, HeLa-ACE2
[1] = system: SARS-CoV-2 Delta (B.1.617.2); assay: In vitro antiviral assay in HeLa-ACE2 cells; format: cell-based; conditions: Severe acute respiratory syndrome coronavirus 2, HeLa-ACE2
SARS-CoV-2 Omicron BA.1 = assay: In vitro antiviral assay in HeLa-ACE2 cells; format: cell-based; conditions: Severe acute respiratory syndrome coronavirus 2, HeLa-ACE2
SARS-CoV-2 Omicron BA.5 = assay: In vitro antiviral assay in HeLa-ACE2 cells; format: cell-based; conditions: Severe acute respiratory syndrome coronavirus 2, HeLa-ACE2
[2] = system: SARS-CoV-2 Omicron XBB1.5; assay: In vitro antiviral assay in HeLa-ACE2 cells; format: cell-based; conditions: Severe acute respiratory syndrome coronavirus 2, HeLa-ACE2
SARS-CoV-2 Omicron JN.1 = assay: In vitro antiviral assay in HeLa-ACE2 cells; format: cell-based; conditions: Severe acute respiratory syndrome coronavirus 2, HeLa-ACE2
HeLa-ACE2 cells = conditions: human
in vitro = conditions: human

SMILES	lung virus titer lowering (positive control) (WA-1/2020 SARS-CoV-2)	IC50 (SARS-CoV-2 WA-1/2020)	IC90 (SARS-CoV-2 WA-1/2020)	IC50 [1]	IC90 [1]	IC50 (SARS-CoV-2 Omicron BA.1)	IC90 (SARS-CoV-2 Omicron BA.1)	IC50 (SARS-CoV-2 Omicron BA.5)	IC90 (SARS-CoV-2 Omicron BA.5)	IC50 [2]	IC90 [2]	IC50 (SARS-CoV-2 Omicron JN.1)	IC90 (SARS-CoV-2 Omicron JN.1)	CC50 (HeLa-ACE2 cells)	CC50 (in vitro)
CC(C)C(=O)OC[C@H]1O[C@@H](n2ccc(NO)nc2=O)[C@H](O)[C@@H]1O [MK-4482, molnupiravir]	approximately 3 log10 ffu/g tissue	–	–	–	–	–	–	–	–	–	–	–	–	–	–
CC(C)(C)[C@H](NC(=O)C(F)(F)F)C(=O)N1C[C@H]2[C@@H]([C@H]1C(=O)N[C@H](C#N)C[C@@H]1CCNC1=O)C2(C)C [Nirmatrelvir, nirmatrelvir]	–	110 nM	210 nM	40 nM	170 nM	30 nM	80 nM	50 nM	140 nM	20 nM	50 nM	60 nM	150 nM	> 5000 nM	> 5000 nM
